Data: patent publication US20240207214A1, “FATTY ACID LACTYLATES FOR USE IN TREATING RUMINANT ANIMALS” (FORFARMERS CORPORATE SERVICES B.V., priority 2021, published 2024)

Tests used:
Format in all cases: in vivo
Settings in all cases: diet supplementation, 10 ruminants per group; putative results
ruminants [1] = assay: comparison of lactylates: effect on methane emission
Protocol: The well documented in vitro gas production technique (batch culture) (Soliva et al., Letters in Applied Microbiology 2003, 37, 35-39) was used in this study. The rumen fluid used in this incubation was obtained before the morning feeding from 3 rumen fistulated dairy cows on a basal diet composed of 50% maize silage and 50% wilted grass silage (on DM basis), supplemented with some straw and soybean meal. In addition, a balanced compound feed was fed to fulfill the animals' requirements for milk production. The rumen fluid of the three animals was mixed and used to prepare the inoculum. Incubations were performed in sealed 125-mL flasks, in triplicate. The supplements comprising the lactylates (in this case applied as ALOAPUR® powder as obtained from Purac/Corbion) at the level of 1 mg per ml buffered rumen fluid (see below), as well as the simulated dairy cow ration were added to the incubation flasks. On the day of the incubation, the flasks were sealed and flushed with CO2. To each flask, 25 mL of CO2-saturated bicarbonate/phosphate buffered rumen fluid was added (buffer:rumen fluid 4:1, v:v) before the onset of the in vitro incubations at 39° C. in a shaking incubator (Edmund Bühler Gmbh, Hechingen, Germany). After 24 h incubation period, the flasks were removed from the incubator and put directly in an ice bath to stop the microbial activity. Total gas pressure was measured, and the gas phase was sampled for gas composition analysis. Afterwards, pH was measured, and samples were collected for volatile fatty acids (VFA) analysis and protozoa numbers counting. […] Methane emission is determined as described in Example 1; SCC, BC and mastitis effects are determined as described in Example 2. Effect on fecal consistency and effect on milk yield is determined as described in Example 3. The different lactylates are stearoyl lactylate, lauroyl lactylate, myristoyl lactylate, cetyl lactylate, palmitoyl lactylate and oleic lactylate. As control, the same diet without lactylates is supplied.

ruminants [2] = assay: comparison of lactylates: effect on SCC, BC and mastitis
Protocol: Two experiments were carried out to evaluate the efficacy of lactylates in stimulating udder health. The first experiment was conducted with goats and the second with dairy cows. In the first experiment, a goat farm was used. The farm had issues with udder health and had high levels of somatic cell count (SCC) and bacterial counts (BC) in milk delivered. Performance and udder health data were collected every 4 weeks from shortly before starting the experiment for a duration of 3 months. During the experiment all goats on the farm were offered a ration supplemented with lactylates (in this case applied as ALOAPUR® powder as obtained from Purac/Corbion) (added to the compound feed, 3.5 to 7 g per goat per day). During the 3-month study period, every 3 to 4 weeks, data on performance and udder health was collected. The 2nd study was conducted on 7 dairy farms. […] Lactylates were supplemented to the ration of the cows on those farms via the compound feed (25 to 40 g per cow per day). The study lasted for 3 months. Performance and udder health data were collected at the beginning and every 4 weeks of the study. […] Methane emission is determined as described in Example 1; SCC, BC and mastitis effects are determined as described in Example 2. Effect on fecal consistency and effect on milk yield is determined as described in Example 3. The different lactylates are stearoyl lactylate, lauroyl lactylate, myristoyl lactylate, cetyl lactylate, palmitoyl lactylate and oleic lactylate. As control, the same diet without lactylates is supplied.

ruminants [3] = assay: comparison of lactylates: effect on fecal consistency score
Protocol: (§1) Two experiments were carried out to evaluate the efficacy of lactylate in stimulating intestinal absorptive capacity and improving fecal consistency, dry matter content and scores and milk fat yield. The first experiment was conducted with goats and the second with dairy cows. The focus of the first experiment was the absorptive capacity and fecal consistency and scores, while the 2nd experiment focused on the effect on milk fat yield. In the first experiment, a goat farm was used. The farm had issues with fecal consistency, having at least 30 goats per pen with low fecal consistency. Fecal consistency and scores per pen were recorded 2 times per week from the start of the experiment for a period of 3 months. The goats in the farm were supplemented with lactylates (in this case applied as ALOAPUR® powder as obtained from Purac/Corbion) (added to the compound feed) at the rate of 3.5 to 7 g per goat per day. The 2nd study focused on the effect on milk fat yield and was conducted at a dairy research farm. The herd (120 cows) was divided into 2 groups blocked on days in milk, milk yield and milk fat %. One group was supplemented with 50 g of lactylates per cow per day while the other group served as a control. The ration for both groups was similar and was balanced on energy, protein and minerals and vitamins. The experiment lasted for 9 week. Performance data was collected/recorded on weekly basis. […] Methane emission is determined as described in Example 1; SCC, BC and mastitis effects are determined as described in Example 2. Effect on fecal consistency and effect on milk yield is determined as described in Example 3. The different lactylates are stearoyl lactylate, lauroyl lactylate, myristoyl lactylate, cetyl lactylate, palmitoyl lactylate and oleic lactylate. As control, the same diet without lactylates is supplied.

ruminants [4] = assay: comparison of lactylates: effect on milk fat yield
Protocol: as §1

Molecule	Methane emission reduction relative to control (ruminants [1])	BC in milk reduced relative to control (ruminants [2])	SCC in milk reduced relative to control (ruminants [2])	incidence of mastitis reduced relative to control (ruminants [2])	Number of ruminants with low fecal consistency reduced relative to control (ruminants [3])	Average milk fat yield increased relative to control (ruminants [4])
CCCCCCCCCCCC(=O)OC(C)C(=O)O (stereo not drawn) [Lauroyl lactylate, lauroyl lactylate]	by >90%	by >20%,	by >20%,	by >25%	by >50%	by >10%
CCCCCCCCCCCCCC(=O)OC(C)C(=O)O (stereo not drawn) [Myristoyl lactylate, myristoyl lactylate]	by >90%	by >20%,	by >20%,	by >25%	by >50%	by >10%
CCCCCCCC/C=C\CCCCCCCC(=O)OC(C)C(=O)O (stereo not drawn) [Oleic lactylate, oleic lactylate]	by >90%	by >20%,	by >20%,	by >25%	by >50%	by >10%
CCCCCCCCCCCCCCCC(=O)OC(C)C(=O)O (stereo not drawn) [Palmitoyl lactylate, palmitoyl lactylate]	by >90%	by >20%,	by >20%,	by >25%	by >50%	by >10%
cetyl lactylate	by >90%	by >20%,	by >20%,	by >25%	by >50%	by >10%
